From patent publication US20250197372A1 (priority 2020, published 2025) come the findings set out here.

Test [1] concerns the target T1, recombinant human GBA (beta-glucocerebrosidase) (Homo sapiens, UniProt P04062).
T1 sequence (P04062 40-536): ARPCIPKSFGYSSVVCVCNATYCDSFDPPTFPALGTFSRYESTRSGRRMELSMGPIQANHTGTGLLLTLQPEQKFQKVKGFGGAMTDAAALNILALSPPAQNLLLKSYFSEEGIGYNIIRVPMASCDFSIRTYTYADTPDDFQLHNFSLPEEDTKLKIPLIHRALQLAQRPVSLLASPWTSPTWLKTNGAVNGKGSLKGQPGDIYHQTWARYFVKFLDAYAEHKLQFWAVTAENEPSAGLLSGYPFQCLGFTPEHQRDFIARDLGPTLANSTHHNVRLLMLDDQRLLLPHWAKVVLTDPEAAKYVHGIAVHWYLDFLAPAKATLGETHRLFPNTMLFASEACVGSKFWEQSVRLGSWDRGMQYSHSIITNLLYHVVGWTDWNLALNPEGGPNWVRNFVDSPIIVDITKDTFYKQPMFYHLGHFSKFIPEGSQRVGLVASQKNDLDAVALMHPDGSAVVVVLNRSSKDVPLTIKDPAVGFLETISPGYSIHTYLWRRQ
In words: Beta-glucocerebrosidase (GBA, glucosylceramidase) assay (4-methylumbelliferyl-beta-D-pyranoside substrate, fluorescence). The test is classed as biochemical. The method in brief:
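IC50 by four-parameter fit of percent inhibition, with product fluorescence (365/440 nm) read after a glycine/NaOH pH 10 stop. Compound and commercial recombinant human enzyme were incubated 60 min at 37 °C before a further 60 min at 37 °C with 4-methylumbelliferyl-beta-D-pyranoside substrate.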

Test [2] addresses rat maltase (partially purified alpha-glucosidase from intestinal rat powder). Put plainly: Intestinal alpha-glucosidase assay, maltose substrate (Glucose GO Kit). The test is classed as biochemical. In short, it runs like this: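 Partially purified alpha-glucosidase from rat intestinal powder was preincubated 60 min at 37 °C with serial compound dilutions, then given maltose or sucrose and incubated 30 min at 37 °C.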

SMILES strings stand for the structures.

Turning to `COc1cc(NCCCCCCN2C[C@H](O)[C@@H](O)[C@H](O)[C@H]2CO)cc(-c2cnccn2)c1` [Compound 1197, (2R,3R,4R,5S)-2-(hydroxymethyl)-1-(6-{[3-methoxy-5-(pyrazin-2-yl)phenyl]amino}hexyl)piperidine-3,4,5-triol], the IC50 was determined as 2070 nM in test [1] and 9 nM in test [2].

For the compound `OC[C@@H]1[C@@H](O)[C@H](O)[C@@H](O)CN1CCCCCCNc1ccc(-c2cnccn2)cc1Cl` [Compound 1198, (2R,3R,4R,5S)-1-(6-{[2-chloro-4-(pyrazin-2-yl)phenyl]amino}hexyl)-2-(hydroxymethyl)piperidine-3,4,5-triol], the half-maximal inhibitory concentration (IC50) in test [1] was 2700 nM; in test [2], less than 1 nM.

For the compound `[N-]=[N+]=Nc1ccc(NCc2cccc(CN3C[C@H](O)[C@@H](O)[C@H](O)[C@H]3CO)c2)c([N+](=O)[O-])c1` [Compound 1169, (2R,3R,4R,5S)-1-[(3-{[(4-azido-2-nitrophenyl)amino]methyl}phenyl)methyl]-2-(hydroxymethyl)piperidine-3,4,5-triol], the half-maximal inhibitory concentration (IC50) in test [1] was 83500 nM; in test [2], less than 1 nM.

`OC[C@@H]1[C@@H](O)[C@H](O)[C@@H](O)CN1CCCCCCNc1cc(Cl)cc(CN2CCCO2)c1` [Compound 1183, (2R,3R,4R,5S)-1-[6-({3-chloro-5-[(1,2-oxazolidin-2-yl)methyl]phenyl}amino)hexyl]-2-(hydroxymethyl)piperidine-3,4,5-triol]: the IC50 turned out to be 5620 nM in test [1] and 15 nM in test [2].

For the compound `OC[C@@H]1[C@@H](O)[C@H](O)[C@@H](O)CN1CCCCCCNc1cc(Cl)cc(-c2cnccn2)c1` [Compound 1196, (2R,3R,4R,5S)-1-(6-{[3-chloro-5-(pyrazin-2-yl)phenyl]amino}hexyl)-2-(hydroxymethyl)piperidine-3,4,5-triol], the half-maximal inhibitory concentration (IC50) was 773 nM in test [1] and 2 nM in test [2].

Regarding `O=[N+]([O-])c1cc(CCO)ccc1NCCCCCCN1C[C@H](O)[C@@H](O)[C@H](O)[C@H]1CO` [Compound 1292, (2R,3R,4R,5S)-1-(6-{[4-(2-hydroxyethyl)-2-nitrophenyl]amino}hexyl)-2-(hydroxymethyl)piperidine-3,4,5-triol], the values for the IC50 in test [1] and in test [2] were 1600 nM and 11 nM, respectively.

Turning to `[N-]=[N+]=Nc1ccc(NCCc2cc(Br)cc(CCN3C[C@H](O)[C@@H](O)[C@H](O)[C@H]3CO)c2)c([N+](=O)[O-])c1` [Compound 1140, (2R,3R,4R,5S)-1-[2-(3-{2-[(4-azido-2-nitrophenyl)amino]ethyl}-5-bromophenyl)ethyl]-2-(hydroxymethyl)piperidine-3,4,5-triol], the IC50 amounted to 674 nM in test [1] and 3120 nM in test [2].

With `Cc1cc(NCc2cccc(CN3C[C@H](O)[C@@H](O)[C@H](O)[C@H]3CO)c2)cc(-c2ncccn2)c1` [Compound 1035, (2R,3R,4R,5S)-2-(hydroxymethyl)-1-{[3-({[3-methyl-5-(pyrimidin-2-yl)phenyl]amino}methyl)phenyl]methyl}piperidine-3,4,5-triol], the IC50 in test [1] is greater than 100000 nM; in test [2] it was 49 nM.

In the case of `COc1cc(NCCCCCCN2C[C@H](O)[C@@H](O)[C@H](O)[C@H]2CO)cc(C2=CCCCC2)c1` [Compound 1149, (2R,3R,4R,5S)-1-(6-{[3-(cyclohex-1-en-1-yl)-5-methoxy-phenyl]amino}hexyl)-2-(hydroxymethyl)piperidine-3,4,5-triol], the IC50 is 56 nM in test [1] and less than 1 nM in test [2].

In the case of `N#Cc1cc(NCc2cccc(CN3C[C@H](O)[C@@H](O)[C@H](O)[C@H]3CO)c2)cc(C2=COCCO2)c1` [Compound 1044, 3-(5,6-dihydro-1,4-dioxin-2-yl)-5-{[(3-{[(2R,3R,4R,5S)-3,4,5-trihydroxy-2-(hydroxymethyl)piperidin-1-yl]methyl}phenyl)methyl]amino}benzonitrile], the figures for the 50% inhibitory concentration (IC50) in test [1] and in test [2] were 53200 nM and less than 1 nM, respectively.

Turning to `CS(=O)(=O)c1cc(Br)cc(NCc2cccc(CN3C[C@H](O)[C@@H](O)[C@H](O)[C@H]3CO)c2)c1` [Compound 1022, (2R,3R,4R,5S)-1-[(3-{[(3-bromo-5-methanesulfonylphenyl)amino]methyl}phenyl)methyl]-2-(hydroxymethyl)piperidine-3,4,5-triol], the half-maximal inhibitory concentration (IC50) in test [1] stood at 90400 nM; in test [2], 28 nM.

For the compound `C[C@@H]1CN(c2ccc(NCc3ccc(CN4C[C@H](O)[C@@H](O)[C@H](O)[C@H]4CO)cc3)c([N+](=O)[O-])c2)C[C@H](C)O1` [Compound 1014], the results for the IC50 in test [1] and in test [2] were greater than 100000 nM and 6 nM, respectively.

As to `COc1cc(NCCCCCCN2C[C@H](O)[C@@H](O)[C@H](O)[C@H]2CO)cc(C2=CCCO2)c1` [Compound 1147, (2R,3R,4R,5S)-1-(6-{[3-(4,5-dihydrofuran-2-yl)-5-methoxyphenyl]amino}hexyl)-2-(hydroxymethyl)piperidine-3,4,5-triol], the IC50 in test [1] was found to be 1980 nM; in test [2], 8 nM.

`OC[C@@H]1[C@@H](O)[C@H](O)[C@@H](O)CN1CCc1ccc(CCNc2cc(Cl)cc(C3=CCOCC3)c2)cc1` [Compound 1160, (2R,3R,4R,5S)-1-{2-[4-(2-{[3-chloro-5-(3,6-dihydro-2H-pyran-4-yl)phenyl]amino}ethyl)phenyl]ethyl}-2-(hydroxymethyl)piperidine-3,4,5-triol]: the IC50 in test [1] turned out to be 1860 nM; in test [2], 75 nM.

For the compound `CC(C)(C)c1cc(NCCCCCCN2C[C@H](O)[C@@H](O)[C@H](O)[C@H]2CO)cc(-c2ncccn2)c1` [Compound 1151, (2R,3R,4R,5S)-1-(6-{[3-tert-butyl-5-(pyrimidin-2-yl)phenyl]amino}hexyl)-2-(hydroxymethyl)piperidine-3,4,5-triol], the values for the IC50 in test [1] and in test [2] were 299 nM and less than 1 nM, respectively.

Take `[N-]=[N+]=Nc1ccc(NCCNc2cc(Cl)cc(CCN3C[C@H](O)[C@@H](O)[C@H](O)[C@H]3CO)c2)c([N+](=O)[O-])c1` [Compound 1143, (2R,3R,4R,5S)-1-{2-[3-({2-[(4-azido-2-nitrophenyl)amino]ethyl}amino)-5-chlorophenyl]ethyl}-2-(hydroxymethyl)piperidine-3,4,5-triol]: the results for the IC50 in test [1] and in test [2] were 404 nM and 2060 nM, respectively.

As for `COc1cc(NCCc2ccc(CCN3C[C@H](O)[C@@H](O)[C@H](O)[C@H]3CO)cc2)cc(C2=COCCO2)c1` [Compound 1155, (2R,3R,4R,5S)-1-{2-[4-(2-{[3-(5,6-dihydro-1,4-dioxin-2-yl)-5-methoxyphenyl]amino}ethyl)phenyl]ethyl}-2-(hydroxymethyl)piperidine-3,4,5-triol], the concentration for half-maximal inhibition (IC50) in test [1] worked out at 3540 nM; in test [2] it was 418 nM.

For the compound `[N-]=[N+]=Nc1ccc(NCCc2cc(CCN3C[C@H](O)[C@@H](O)[C@H](O)[C@H]3CO)ccc2C2CCCCC2)c([N+](=O)[O-])c1` [Compound 1171, (2R,3R,4R,5S)-1-[2-(3-{2-[(4-azido-2-nitrophenyl)amino]ethyl}-4-cyclohexylphenyl)ethyl]-2-(hydroxymethyl)piperidine-3,4,5-triol], the IC50 in test [1] came out at 204 nM; in test [2] it was 5660 nM.

`COc1cc(NCCCCCCN2C[C@H](O)[C@@H](O)[C@H](O)[C@H]2CO)cc(C2CCCCC2)c1` [Compound 1148, (2R,3R,4R,5S)-1-{6-[(3-cyclohexyl-5-methoxyphenyl)amino]hexyl}-2-(hydroxymethyl)piperidine-3,4,5-triol]: the IC50 in test [1] is 2 nM; in test [2], less than 1 nM.

The term IC50 denotes the concentration at which inhibition is half-maximal.
